For the first assay, the target named is T1, humane Tyrosinase (Homo sapiens, UniProt P14679).
T1 sequence (P14679 19-529): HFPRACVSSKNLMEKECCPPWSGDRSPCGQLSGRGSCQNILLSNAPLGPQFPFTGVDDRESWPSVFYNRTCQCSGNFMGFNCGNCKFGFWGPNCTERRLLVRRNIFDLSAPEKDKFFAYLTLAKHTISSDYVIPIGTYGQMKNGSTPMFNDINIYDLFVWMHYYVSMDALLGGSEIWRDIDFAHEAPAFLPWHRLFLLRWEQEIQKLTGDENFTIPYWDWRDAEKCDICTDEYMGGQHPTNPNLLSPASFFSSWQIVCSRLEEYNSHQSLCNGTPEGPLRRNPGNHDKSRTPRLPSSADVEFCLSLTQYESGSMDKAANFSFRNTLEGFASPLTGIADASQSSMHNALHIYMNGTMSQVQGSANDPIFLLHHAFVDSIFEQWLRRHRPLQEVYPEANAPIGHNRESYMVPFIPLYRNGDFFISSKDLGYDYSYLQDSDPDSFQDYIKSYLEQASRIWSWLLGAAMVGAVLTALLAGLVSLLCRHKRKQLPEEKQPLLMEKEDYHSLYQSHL
As to the kind of experiment: Enzyme test: conversion of L-DOPA to L-dopaquinone by human tyrosinase, MBTH detection, absorption at 490 nm. Type of assay: biochemical. As to conditions: Konzentration 10 µg/mL; substrate L-DOPA; read-out: Inhibition (% der Kontrolle).
Description: Die Wirksamkeit der Thiazole wurde mit einem Enzymtest belegt, in der Umsatz von L-DOPA zu L-Dopachinon durch eine humane Tyrosinase gemessen wurde.
As for `CC(C)(C)c1ccc(C(=O)Nc2nc(-c3ccc(O)cc3O)cs2)cc1` [4-(tert-butyl)-N-(4-(2,4-dihydroxyphenyl)thiazol-2-yl)benzamid], the inhibition (commonly how much of the control response was suppressed) at 10 µg/mL came to 27%.

As for `CC(=O)c1ccc(C(=O)Nc2nc(-c3ccc(O)cc3O)cs2)cc1` [4-acetyl-N-(4-(2,4-dihydroxyphenyl)thiazol-2-yl)benzamid], the inhibition at 10 µg/mL is 92%.

With `N#Cc1ccc(C(=O)Nc2nc(-c3ccc(O)cc3O)cs2)cc1` [4-cyano-N-(4-(2,4-dihydroxyphenyl)thiazol-2-yl)benzamid], the inhibition at 10 µg/mL came to 96%.

With `O=C(Nc1nc(-c2ccc(O)cc2O)cs1)c1ccc(CO)cc1` [N-(4-(2,4-dihydroxyphenyl)thiazol-2-yl)-4-(hydroxymethyl)benzamid], the inhibition at 10 µg/mL is 99%.

On to `O=C(Nc1nc(-c2ccc(O)cc2O)cs1)c1ccc(CO)nc1` [N-(4-(2,4-dihydroxyphenyl)thiazol-2-yl)-6-(hydroxymethyl)nicotinamid], for which the inhibition at 10 µg/mL was found to be 98%.

As to `O=C(Nc1nc(-c2ccc(O)cc2O)cs1)c1ccccc1` [N-(4-(2,4-dihydroxyphenyl)thiazol-2-yl)benzamid], the inhibition at 10 µg/mL was 98%.

Take `O=C(Nc1nc(-c2ccc(O)cc2O)cs1)c1ccc2c(c1)OCO2` [N-(4-(2,4-dihydroxyphenyl)thiazol-2-yl)benzo[d][1,3]dioxole-5-carboxamide]: the inhibition at 10 µg/mL was 92%.

Turning to `O=C(Nc1nc(-c2ccc(O)cc2O)cs1)c1ccccn1` [N-(4-(2,4-dihydroxyphenyl)thiazol-2-yl)picolinamid], the inhibition at 10 µg/mL is 82%.

Turning to `c1ccc(Nc2nc(-c3ccncc3)cs2)nc1` [N-(pyridin-2-yl)-4-(pyridin-4-yl)thiazol-2-amin, reference compound], the inhibition at 10 µg/mL was 16%.

Regarding `C=CCN(C1=NC(C)(C)C(=C)S1)c1ccc(C)cc1C` [N-allyl-N-(2,4-dimethylphenyl)-4,4-dimethyl-5-methylene-4,5-dihydrothiazol-2-amin, reference compound], the inhibition at 10 µg/mL was 13%.

As to `CN(c1ccccc1)c1nc(-c2ccncc2)cs1` [N-methyl-N-phenyl-4-(pyridin-4-yl)thiazol-2-amin, reference compound], the inhibition at 10 µg/mL is 13%.

The assay is the same for the next values; noted with them: read-out: Inhibition (% der Kontrolle).
For `CC(C)(O)c1ccc(C(=O)Nc2nc(-c3ccc(O)cc3O)cs2)cc1` [N-(4-(2,4-dihydroxyphenyl)thiazol-2-yl)-4-(2-hydroxypropan-2-yl)benzamid], the inhibition at 10 µg/mL was found to be 96%.

For the origin of these results see EP2758383B1, “AROMATIC AMIDOTHIAZOLES, COSMETIC AND DERMATOLOGICAL PREPARATIONS CONTAINING THEM, AND THEIR USE FOR THE TREATMENT AND PROPHYLAXIS OF UNWANTED PIGMENTATION OF THE SKIN” (priority 2011, dated 2013).
